As usually defined, the AC50 is the concentration at which the activity in the assay is half-maximal.

The text below walks through data of PubChem BioAssay AID493102 (Broad Institute, 2011).

The experiment relates to SK-MEL-5 TRPM1-promoter luciferase reporter, 24 h. Kind of experiment: TRPM1 promoter luciferase signal decrease, dose response, MITF inhibitor project, cell-based, SK-MEL-5, cherry-picked, set 4 (AID 493102).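 Further: actives lower the luciferase signal so the potency reflects inhibition of reporter expression.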
Take `O=C(Nc1ccccc1N1CCN(C(=O)c2ccccc2)CC1)c1ccc([N+](=O)[O-])o1`: the concentration at half-maximal activity (AC50) is 11.4 µM.
Then `CCOc1ccc(-n2c(-c3ccc(OC)cc3)c[n+]3c2CCCCC3)cc1`, with 2.13 µM; and `C(#Cc1ccccc1)C[N+]1(CC#Cc2cccc3ccccc23)CCCC1`, with 6.21 µM; and `CC(C)CC(=O)/C=C/n1c(=S)oc2ccccc21`, with 10.5 µM.
Then `Oc1cc(NCCN2CCOCC2)cc2cccnc12`, with 25.9 µM.
Then `CS(=O)(=O)N1CCN(c2ccc(NC(=O)c3ccc([N+](=O)[O-])o3)cc2)CC1`, with 4.92 µM; and `COc1ccc(NC(=O)CCC(=O)N/N=C/c2ccc([N+](=O)[O-])s2)cc1`, with 7.62 µM.
With `CCn1c(=O)c([N+](=O)[O-])c(Cl)c2ccccc21`, the AC50 is 7.2 µM.
To `CCN(CCO)c1ccc(N=Nc2cc(C)[nH]n2)cc1` belongs 3.6 µM.
Then `CCN(Cc1ccc(OC)c(F)c1)C(=O)CCl`, with 3.36 µM; and `Cn1nnnc1Sc1ncnc2scc(-c3ccsc3)c12`, with 7.95 µM; and `O=C(NC1CCCCC1)C(c1cccnc1)N(C(=O)CCl)c1cccc(Cl)c1` (centres undefined), with 4.16 µM.
To `COc1cc([N+](=O)[O-])cc(/C=N/NC(=O)c2ccc(NC(=O)c3ccc(C)cc3)cc2)c1O` belongs 1.55 µM; to `COc1cc2c(c(OC)c1OC)-c1ccc(OC)c(=O)cc1C(NC(C)=O)CC2` (centres undefined), 0.056 µM.
For the compound `c1ccc(-c2cn3nc4c(nc3n2)CCCC4)cc1`, the AC50 was 5.89 µM.
To `OC(CNCC(c1ccc(Cl)cc1Cl)c1c[nH]c2ccccc12)c1ccccc1` (centres undefined) belongs 14.7 µM.
To `COCCN(C(=O)CCl)C(C(=O)NC1CCCCC1)c1ccccc1C` (centres undefined) belongs 17.8 µM.
As to `CC1CCCCC1NC(=O)/C(C#N)=C/c1ccccc1F` (centres undefined), the AC50 is 14.4 µM.
To `CCN(CC)CCn1nc2c3c(cccc3c1=O)-c1ccccc1-2` belongs 5.92 µM; to `CC1CCN(Cc2nc(-c3ccc(Cl)cc3)no2)CC1`, 7.62 µM.
As for `COc1ccc(-c2cc3c(nn2)-c2ccccc2C3=O)cc1`, the AC50 is 4.22 µM.
On to `Cc1cc(Sc2ncnc(N)c2[N+](=O)[O-])ncn1`, for which the AC50 is 7.61 µM.
To `C=C1CCC[C@]2(C)C[C@H]3OC(=O)C(CN4CCCCC4CO)[C@H]3CC12` (some centres undefined) belongs 11 µM.
To `Cc1ccc(S(=O)(=O)N2CCCCC2)cc1NC(=O)Cn1ncc(Cl)c(Cl)c1=O` belongs 6.21 µM.
To `CN(C)c1ccc(/C=C(\C#N)c2ccccn2)cc1` belongs 6.32 µM.
Take `CC(C)C(=O)N1CCN(c2ccc(NC(=O)c3ccc([N+](=O)[O-])o3)cc2)CC1`: the AC50 is 7.98 µM.
Then `CC(C)(C)c1ccc(-c2noc(CCC(=O)NCc3ccco3)n2)cc1`, with 0.122 µM; and `O=C(N/N=C/c1ccc([N+](=O)[O-])o1)c1ccccc1-n1cccc1`, with 17.1 µM.
Then `Nc1nnnn1/N=C/C(Br)=C/c1ccccc1`, with 5.44 µM; and `Cn1nnnc1Sc1ncnc2scc(-c3cccs3)c12`, with 7 µM; and `O=C(Nc1ccc(Cl)c(S(=O)(=O)N2CCOCC2)c1)c1ccc(OCC2CCCO2)cc1` (centres undefined), with 3.26 µM.
Then `O=C(N/N=C/c1ccc(F)cc1)c1c(O)c2ccccc2[nH]c1=O`, with 9.64 µM; and `C/C(=N\NC(=O)Cc1ccc(Cl)cc1)c1ccccn1`, with 4.22 µM.
On to `O=C(Nc1nc(-c2ccccn2)cs1)c1ccc([N+](=O)[O-])o1`, for which the AC50 was 10.8 µM.
Then `Cc1ccc(C)c(S(=O)(=O)N2CCN(Cc3ccc(O)c4ncccc34)CC2)c1`, with 4.44 µM; and `CC(=O)OCCCNc1cc(Sc2ccc(Cl)cc2)c2nonc2c1[N+](=O)[O-]`, with 10.9 µM.
To `O=C(Nc1ccccc1N1CCOCC1)c1ccc([N+](=O)[O-])s1` belongs 12.3 µM; to `NC(=O)C1CCN(C2=C(NS(=O)(=O)c3ccc(Br)cc3)C(=O)c3ccccc3C2=O)CC1`, 11.9 µM.
To `CN(C(=O)/C=C/c1ccc([N+](=O)[O-])s1)c1ccccc1` belongs 9.11 µM.
For the compound `CC(C)(c1ccccc1)c1ccc(OCC(O)CNC2CCN(Cc3ccccc3)CC2)cc1` (centres undefined), the AC50 is 7.94 µM.
Then `CC(C)n1cc(/C=C/c2cc[n+](C)cc2)c2ccccc21`, with 8.14 µM; and `CCCCN(CC)CCCNC(=O)c1cc2c(=O)n(CC)c3ccccc3c2s1`, with 21.6 µM.
Then `Cc1cc(NCCCn2ccnc2)n2ncc(-c3ccccc3)c2n1`, with 11 µM.
Then `COc1cccc(N2CCN(C(=O)c3ccc(CS(=O)c4ccccc4Cl)o3)CC2)c1` (centres undefined), with 0.894 µM.
For the compound `Cc1cccc(/C=C2/Sc3ccc(C(=O)NCCN4CCCC4)cc3NC2=O)c1`, the AC50 is 18.4 µM.
Regarding `Cn1cccc1-c1cc(C(=O)N/N=C/c2cc(Br)ccc2O)[nH]n1`, the AC50 is 5.25 µM.
To `CCCCN1CCc2c1nc1ccc(Br)cc1c2N` belongs 12.2 µM; to `CC(C)C1CC(CCNCc2ccc(N(C)C)cc2)(c2ccccc2)CCO1` (centres undefined), 11.1 µM.
To `O=S(=O)(c1ccc(Cl)cc1)N1CCN(Cc2ccc(O)c3ncccc23)CC1` belongs 4.37 µM; to `O=C(Nc1ccc2nc3n(c(=O)c2c1)CCCCC3)c1cc([N+](=O)[O-])ccc1F`, 10.7 µM; to `COc1ccc(O)c(/C=N/NC(=O)c2ccc(CSc3nc(C)cc(C)n3)cc2)c1`, 9.31 µM.
Then `Cc1c(NC(=O)C(C)OC(=O)c2ccc([N+](=O)[O-])s2)c(=O)n(-c2ccccc2)n1C` (centres undefined), with 34.1 µM.
Take `O=C(N/N=C/c1cc([N+](=O)[O-])ccc1N1CCNCC1)c1ccc([N+](=O)[O-])cc1`: the AC50 was 8.19 µM.
To `Nc1ncnc(Sc2ncccn2)c1[N+](=O)[O-]` belongs 11.7 µM; to `COc1cc2c(cc1OC)C(c1ccccc1)N(C(=O)CCl)CC2` (centres undefined), 5.36 µM.
To `O=C1NC(=O)N(Cc2ccccc2)C(=O)/C1=C\C=C\c1ccco1` belongs 6.29 µM; to `CC(C)(C)c1ccc(C(=O)Nc2ccc(CC(=O)O)cc2)o1`, 0.329 µM; to `CN(C)S(=O)(=O)c1cccc(NC(=O)CSc2nc3c(cc2C#N)C(=O)CC(C)(C)C3)c1`, 9.02 µM.
On to `O=C1c2ccccc2C(=O)c2c1ncn2-c1ccccc1`, for which the AC50 is 7.33 µM.
Then `N#CC(C#N)=C1C=CC=CN1/C(=C\c1ccco1)C(=O)c1ccc(Cl)cc1`, with 6.85 µM; and `O=C(CSCC(=O)Nc1ccccc1)N/N=C/c1c(O)ccc2ccccc12`, with 3.33 µM.
For `CCOC(=O)Cn1c(=NC(=O)c2ccc([N+](=O)[O-])s2)sc2ccccc21`, the AC50 is 3.5 µM.
To `COc1cc(NC(=O)c2[nH]cnc2C(N)=O)cc(C(=O)Nc2cccc(C(F)(F)F)c2)c1` belongs 10.9 µM; to `Oc1c(Cl)cc(Cl)cc1/C=N/Nc1ncc(Br)cn1`, 7.84 µM; to `O=C(O)c1cccc(N/N=C/c2ccc(OC(F)(F)F)cc2)c1`, 5.95 µM.
To `O=C(N/N=C/c1cc(Br)ccc1O)c1ccncc1` belongs 9.36 µM.
Regarding `Cc1ccc(S(=O)(=O)/N=C2\C(=O)c3ccccc3C([O-])=C2n2cc[n+](CCC(C)C)c2)cc1`, the AC50 was 4.11 µM.
In the case of `O=C(C[n+]1cccc2ccccc21)c1ccc([N+](=O)[O-])cc1`, the AC50 was 6.21 µM.
Then `N/C(=N\OC(=O)c1ccccc1)c1ccccn1`, with 11.9 µM.
Then `O=S(=O)(c1ccc(F)cc1)c1snnc1-c1ccccc1`, with 15.1 µM; and `COc1ccc(S(=O)(=O)N(C(C)=O)c2ccc(OC(C)=O)c3ccccc23)cc1[N+](=O)[O-]`, with 11.6 µM.
To `COC(=O)C1=C(CN2CCCc3ccccc32)NC(=O)NC1c1ccc(F)cc1` (centres undefined) belongs 2.16 µM; to `CN1CCN(C2=C(NS(=O)(=O)c3ccccc3)C(=O)c3ccccc3C2=O)CC1`, 6.9 µM; to `O=[N+]([O-])c1ccc(-n2nnnc2-c2ccccc2)c([N+](=O)[O-])c1`, 7.37 µM.
With `C=CCn1c(C)cc(C2=NNC(=NCC)SC2)c1C`, the half-maximal activity concentration (AC50) was 0.056 µM.
To `Cc1c(N=C2C=CC(=O)c3ccccc32)c(=O)n(-c2ccccc2)n1C` belongs 5.26 µM; to `CC(=O)Nc1nc(C)c(-c2csc(Nc3cccc(C(C)=O)c3)n2)s1`, 8.38 µM; to `O=C(/C=C/c1cccc([N+](=O)[O-])c1)n1cnc2ccccc21`, 4.39 µM.
As to `CCCCCCn1c(=O)c(C(=O)Nc2cnccn2)c(O)c2ccccc21`, the AC50 was 3.68 µM.
To `CCOc1c(Br)cc(CNC2CCCCCCC2)cc1OC` belongs 20.5 µM.
On to `CN1CCN(C2=C(NS(=O)(=O)c3cccs3)C(=O)c3ccccc3C2=O)CC1`, for which the AC50 was 6.98 µM.
Consider `CCOC(=O)c1ccc(NC(=O)c2ccc(C)c(S(=O)(=O)N3CCOCC3)c2)cc1`, for which the AC50 is 5.36 µM.
To `CCN1CCN(/C=N/c2nc3c(s2)CCCC3)CC1` belongs 6.42 µM; to `O=C(Nc1ccccc1)NN(C(=O)CCl)c1ccccc1`, 8.5 µM.
To `CCOC(=O)c1[nH]cnc1N=Nc1c(O)ccc2ccccc12` belongs 3.76 µM; to `O=C(N/N=C\c1cc(Cl)ccc1O)c1ccc(S(=O)(=O)N2CCCCC2)cc1`, 2.81 µM.
On to `CNC(=O)COC(=O)c1ccccc1C(=O)c1ccc(Cl)c([N+](=O)[O-])c1`, for which the AC50 was 9.77 µM.
To `Cc1ccc(C(=O)Nc2cnc3ccccc3c2)cc1` belongs 1.15 µM; to `Cn1nnnc1Sc1ncnc2scc(-c3cccc(F)c3)c12`, 5.98 µM; to `C=CCOc1ccc(/C=C2\SC(=S)N(CCC(=O)O)C2=O)cc1`, 0.337 µM.
Then `CCCCC[n+]1ccn(C2=C([O-])c3ccccc3C(=O)/C2=N\S(=O)(=O)c2ccccc2)c1`, with 5.9 µM; and `CCOc1ccc(NC(=O)c2ccccn2)cc1`, with 4.4 µM.
Then `Cc1ccc(-c2cc3onc(-c4ccccc4)c3c(=O)n2C)cc1`, with 9.77 µM.
`O=[N+]([O-])/C=C\c1ccc(N2CCCC2)c(F)c1`: the AC50 was 13.4 µM.
Consider `O=C1C=CC(=C(c2ccc(O)cc2)c2ccc(O)cc2)C=C1`, for which the half-maximal activity concentration (AC50) is 9.92 µM.
To `COC(=O)C1=C(C)N(Cc2ccccc2)C(=NCc2ccccc2)N[C@H]1c1ccccc1` belongs 18 µM.
Then `CCN1/C(=C/c2cc[n+](C)cc2)C=Cc2cc(C)ccc21`, with 1.74 µM; and `O=C(CCl)N1N=C(c2ccco2)CC1c1cccs1` (centres undefined), with 7.84 µM; and `CC1=C/C(=N\NC(=S)Nc2cccnc2)CC(C)(C)C1`, with 11 µM.
